From publication PMC10994559 (PLOS Neglected Tropical Diseases, 2024) come the findings set out here.

Data set [1] has as its system intracellular L. infantum amastigotes. The data set is described as follows: Parasite rescue assay (intramacrophage, J774 infected with L. infantum). The format is cell-based, Leishmania infantum. The note with it: J774, 25 µM; intracellular amastigote; read-out: viability, intracellular L. major amastigote (25 µM).
The next data set deals with E. histolytica. Put plainly: E. histolytica viability, ATP luminescence (Cell titer glo). It counts as cell-based, Entamoeba histolytica. The settings on record: Entamoeba histolytica; for viability at 2.5 µM: read-out: viability, E.histolytica (2.5 µM); for viability at 25 µM: read-out: viability, E.histolytica (25 µM). The method in brief: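 E. histolytica strain B2-5 at 2.5x10^4 cells/ml was exposed to compound for 48 h at 37 °C under anaerobic conditions, with viability read as ATP luminescence (CellTiter-Glo). The primary screen used 25 μM in triplicate, and follow-up potency runs used 9–16-point ranges spanning 0.01–100 μM.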

Another data set has as its system T. cruzi trypomastigotes. The data set is described as follows: T. cruzi viability, resazurin reduction. It counts as cell-based, Trypanosoma cruzi. The settings on record: Trypanosoma cruzi; for viability at 2.5 µM: read-out: viability, T.cruzi (2.5 µM); for viability at 25 µM: read-out: viability, T.cruzi (25 µM). The method in brief:
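Y-strain trypomastigotes kept in supplemented liver infusion tryptose broth with 10% FCS, pH 7.2, at 28°C. Viability by fluorescence resazurin reduction; single-point screen at 2.5 μM, then 18-concentration dose response. Amphotericin B as control drug.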

Data set [2] can be described thus: Cytotoxicity assay J774, resazurin reduction. The note with it: mouse, J774 macrophage cells; for viability at 72 h, 2.5 µM: read-out: viability, J774 (2.5 µM); for viability at 72 h, 25 µM: read-out: viability, J774 (25 µM). The format is cell-based, murine. Summed up:
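J774 and HepG2 cells were seeded at 0.5x10^5 cell/well and exposed to serially diluted compounds for 72 h at 37°C, 5% CO2. Viability was read by fluorescence resazurin reduction (λEx 550 nm, λEm 590 nm).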

The next data set has as its system T. brucei brucei BSF. Put plainly: T. brucei BSF viability, resazurin reduction. The format is cell-based, Trypanosoma brucei brucei. The note with it: Trypanosoma brucei; for viability at 2.5 µM: read-out: viability, T.brucei (2.5 µM); for viability at 25 µM: read-out: viability, T.brucei (25 µM).
Data set [3] concerns L. major axenic amastigotes. Put plainly: L. major axenic amastigote viability, resazurin reduction. The note with it: Leishmania major; for viability at 2.5 µM: read-out: viability, L.major amastigote(2.5 µM). The method in brief: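 Axenic L. major LV561 amastigotes were grown in Grace medium with 20% FCS, pH 5.4, at 33°C and seeded at 0.5x10^5 cells/well with compounds for 72 h. Resazurin was then added for 6 h and fluorescence read at ex 550/em 590 nm; hits were retested at 2.5 μM.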

The subject of another data set is L. major promastigotes. Put plainly: L. major promastigote viability, resazurin reduction. The format is cell-based, Leishmania major. The settings on record: Leishmania major, read-out: viability, L.major promastigote (25 µM). An excerpt:
(§1) The infectivity of the parasites was boosted by passaging in Balb/c mice and culturing the infected lymph nodes after six weeks. L. infantum (MHOM / BR / 76 / M4192) parasite was passaged in the same media formulation with 0.5% urine.

The subject of data set [4] is L. infantum promastigotes. Put plainly: L. infantum promastigote viability, resazurin reduction. It counts as cell-based, Leishmania infantum. The settings on record: Leishmania infantum, sheet LTC_compound_viability, value ± spread; for viability at 2.5 µM: read-out: viability, L. infantum promastigote (2.5 µM); for viability at 25 µM: read-out: viability, L. infantum promastigote (25 µM).
From the text: as §1

The mark [5] stands for this setting: read-out: viability, L.major amastigote (25 µM).

Molecules are shown by their SMILES. Where two headings read alike, the source gives them in different places.

Regarding `CC(C)(C)c1ccc(NC[C@H](O)[C@@H](N)Cc2ccccc2)cc1` [LTC-1034, (2S,3S)-3-Amino-1-((4-(tert-butyl)phenyl)amino)-4-phenylbutan-2-ol], the melting point is 74 to 76 °C. Further, the viability at 25 µM in data set [1] was determined as 105 ± 5.69%. In the data set with E. histolytica, the viability at 2.5 µM came out at 52 ± 6.13% and the viability at 25 µM was found to be 123 ± 5.09%. Besides, in the data set on T. cruzi trypomastigotes, the viability at 2.5 µM is 60.1 ± 2.2% and the viability at 25 µM is 30.8 ± 2.5%. In [2], the viability at 72 h, 2.5 µM turned out to be 96.6 ± 5.47% and the viability at 72 h, 25 µM stood at 64.1 ± 4.5%. Besides, in the data set with T. brucei brucei BSF, the viability at 2.5 µM came out at 72.8 ± 4.34% and the viability at 25 µM came to 2.34 ± 1.3%. Further, the viability at 25 µM in [3] (72 h, read-out: Residual viability, L.major amastigote (25 µM)) turned out to be 15.2%. In addition, the viability at 25 µM in [3] (setting [5]) worked out at 15.2 ± 1.86%. Further, the viability at 2.5 µM in data set [3] was found to be 73.9 ± 0.76%. Moreover, the viability at 25 µM in the data set with L. major promastigotes (72 h) turned out to be 79.3 ± 17.2%. Besides, the viability at 25 µM in the data set with L. major promastigotes (25 µM) was 6.26 ± 1.21%. Besides, in data set [4], the viability at 2.5 µM is 68 ± 22.2% and the viability at 25 µM was 3.46 ± 0.12%.
Regarding `COc1ccc(NC[C@H](O)[C@@H](N)Cc2ccccc2)cc1` [LTC-1042, (2S,3S)-3-Amino-1-((4-methoxyphenyl)amino)-4-phenylbutan-2-ol], the melting point fell in the range of 78 to 80 °C. Also, in data set [1], the viability at 25 µM came out at 67.6 ± 19.8%. Besides, in the data set on E. histolytica, the viability at 2.5 µM was found to be 106 ± 18% and the viability at 25 µM is 125 ± 46.5%. In the data set with T. cruzi trypomastigotes, the viability at 2.5 µM was determined as 61.9 ± 1.61% and the viability at 25 µM came to 18.6 ± 2.9%. Further, in [2], the viability at 72 h, 2.5 µM amounted to 93.9 ± 4.73% and the viability at 72 h, 25 µM is 97.8 ± 15.5%. Also, in the data set on T. brucei brucei BSF, the viability at 2.5 µM was found to be 77.3 ± 2.39% and the viability at 25 µM was found to be 2.38 ± 1.15%. The viability at 25 µM in data set [3] (setting [5]) came out at 39 ± 23.4%. Further, the viability at 25 µM in the data set on L. major promastigotes (72 h) amounted to 86.4 ± 2.46%. The viability at 25 µM with L. major promastigotes (25 µM) came out at 0.03 ± 0.1%. Further, in [4], the viability at 2.5 µM came to 81.7 ± 3.08% and the viability at 25 µM was 1.85 ± 0.19%.
Molecule `Cc1cccc(C)c1NC[C@H](O)[C@@H](N)Cc1ccccc1` [LTC-1041, (2S,3S)-3-Amino-1-((2,6-dimethylphenyl)amino)-4-phenylbutan-2-ol] yielded a melting point of 63 to 65 °C. Further, the viability at 25 µM in data set [1] worked out at 71.6 ± 22.8%. In addition, in the data set with E. histolytica, the viability at 2.5 µM is 85.2 ± 16.3% and the viability at 25 µM was 128 ± 30.1%. Also, in the data set with T. cruzi trypomastigotes, the viability at 2.5 µM stood at 60 ± 3.23% and the viability at 25 µM was 57.2 ± 4.4%. In addition, in data set [2], the viability at 72 h, 2.5 µM was found to be 100 ± 2.23% and the viability at 72 h, 25 µM worked out at 85.1 ± 13.9%. In addition, in the data set on T. brucei brucei BSF, the viability at 2.5 µM stood at 70.5 ± 3.15% and the viability at 25 µM stood at 2.06 ± 1.4%. In [3] (setting [5]), the viability at 25 µM is 73.8 ± 2.47%. The viability at 25 µM in the data set with L. major promastigotes (72 h) was determined as 88 ± 2.36%. Further, the viability at 25 µM in the data set with L. major promastigotes (25 µM) came to 15.5 ± 3.29%. In data set [4], the viability at 2.5 µM worked out at 47.1 ± 4.67% and the viability at 25 µM came out at 20.3 ± 4.1%.
`N[C@@H](Cc1ccccc1)[C@@H](O)CNc1ccc(C(F)(F)F)cc1` [LTC-1027, (2S,3S)-3-Amino-4-phenyl-1-((4-(trifluoromethyl)phenyl)amino)butan-2-ol] came in with a melting point of 105 to 107 °C. In data set [1], the viability at 25 µM was 79.3 ± 16.4%. Further, in the data set with E. histolytica, the viability at 2.5 µM amounted to 79.1 ± 9.1% and the viability at 25 µM was found to be 2.09 ± 3.63%. For the same molecule, in the data set on T. cruzi trypomastigotes, the viability at 2.5 µM came out at 61.8 ± 2.34% and the viability at 25 µM stood at 12 ± 0.47%. For the same molecule, in [2], the viability at 72 h, 2.5 µM worked out at 96.1 ± 4.11% and the viability at 72 h, 25 µM was found to be 99.9 ± 8.05%. Besides, in the data set on T. brucei brucei BSF, the viability at 2.5 µM is 11.2 ± 1.8% and the viability at 25 µM turned out to be 2.27 ± 0.89%. In addition, the viability at 25 µM in data set [3] (setting [5]) is 75.5 ± 3.25%. For the same molecule, in the data set on L. major promastigotes (72 h), the viability at 25 µM came out at 72.2 ± 16.2%. Further, the viability at 25 µM in the data set on L. major promastigotes (25 µM) was -0.24 ± 0.15%. In data set [4], the viability at 2.5 µM came to 77.9 ± 1.82% and the viability at 25 µM was found to be 0.64 ± 0.3%.
`Cc1ccc(NC[C@H](O)[C@@H](N)Cc2ccccc2)cc1` [LTC-1043, (2S,3S)-3-Amino-4-phenyl-1-(p-tolylamino)butan-2-ol] returned a melting point of 57 to 59 °C. Moreover, in data set [1], the viability at 25 µM was 63.4 ± 7.61%. Besides, in the data set with E. histolytica, the viability at 2.5 µM was determined as 74.3 ± 21.6% and the viability at 25 µM turned out to be 97.3 ± 19.4%. In the data set with T. cruzi trypomastigotes, the viability at 2.5 µM worked out at 61.9 ± 0.89% and the viability at 25 µM was 31.9 ± 1.78%. In data set [2], the viability at 72 h, 2.5 µM worked out at 95.7 ± 7.77% and the viability at 72 h, 25 µM was 93.5 ± 8.83%. For the same molecule, in the data set on T. brucei brucei BSF, the viability at 2.5 µM was determined as 80.6 ± 2.56% and the viability at 25 µM came out at 2.22 ± 1.09%. In addition, the viability at 25 µM in data set [3] (setting [5]) turned out to be 22.1 ± 2.55%. The viability at 2.5 µM in data set [3] worked out at 76.2 ± 2.46%. The viability at 25 µM in the data set on L. major promastigotes (72 h) was found to be 83.4 ± 5.16%. Moreover, the viability at 25 µM with L. major promastigotes (25 µM) is 22.1 ± 5%. For the same molecule, in [4], the viability at 2.5 µM came to 71.6 ± 5.44% and the viability at 25 µM was 16.9 ± 2.12%.
Regarding `N[C@@H](Cc1ccccc1)[C@@H](O)CNc1ccc(F)cc1` [LTC-1026, (2S,3S)-3-Amino-1-((4-fluorophenyl)amino)-4-phenylbutan-2-ol], the melting point fell in the range of 88 to 90 °C. The viability at 25 µM in data set [1] came to 102 ± 4.55%. Further, in the data set with E. histolytica, the viability at 2.5 µM was 65.6 ± 10.1% and the viability at 25 µM came out at 113 ± 30.5%. Besides, in the data set with T. cruzi trypomastigotes, the viability at 2.5 µM is 58.6 ± 1.12% and the viability at 25 µM was 57.8 ± 6.73%. Besides, in data set [2], the viability at 72 h, 2.5 µM is 94.6 ± 3.96% and the viability at 72 h, 25 µM was -0.01 ± 0.89%. Also, in the data set with T. brucei brucei BSF, the viability at 2.5 µM was 71.2 ± 5.23% and the viability at 25 µM stood at 2.26 ± 0.92%. Besides, the viability at 25 µM in [3] (setting [5]) is 59.5 ± 7.56%. For the same molecule, the viability at 25 µM in the data set with L. major promastigotes (72 h) came out at 93.3 ± 1.34%. Further, the viability at 25 µM in the data set with L. major promastigotes (25 µM) was found to be 34.1 ± 3.37%. In addition, in data set [4], the viability at 2.5 µM worked out at 84.16 ± 0.61% and the viability at 25 µM turned out to be 56.98 ± 0.29%.
